{
  "source": "patent US20220145406A1",
  "about": "“BIOMARKERS, AND USES IN TREATMENT OF VIRAL INFECTIONS, INFLAMMATIONS, OR CANCER” (ABIVAX, priority 2018, published 2022)",
  "key": {"HIV-1 YU-2 strain": {"system": "HIV-1 YU-2 strain", "experiment": "HIV-1 replication measured by p24 production in infected PBMCs", "assay_type": "cell-based", "conditions": "Human immunodeficiency virus 1, PBMC; 5 μM ABX464; PBMCs from 6 donors infected with YU-2 strain; read-out: inhibition of viral replication (p24 production)", "experimental": "Buffy coats from HIV-negative individuals were obtained from the local blood donation center in Centre de transfusion sanguine Montpellier. Human peripheral blood mononuclear cells (PBMCs) were isolated by Ficoll (Histopaque, Sigma) gradient centrifugation. CD4+ and CD8+ T cells were purified from PBMCs after Ficoll gradient centrifugation by Human CD4+ beads positive selection and CD8+ beads positive selection, respectively (Miltenyi). PBMCs, CD4+ and CD8+ T cells were grown at 37° C. and 5% CO2 to a density of 1.5×10^6 cells/ml in RPMI GlutaMAX medium (Life Technologies) supplemented with 10% fetal calf serum (FCS) (Thermo Fisher), 40 U/ml of IL2 (PeproTech) and 5 μg/mL of PHA (Roche) for 2 days. […]\nPBMCs from 6 HIV-negative donors were infected with the YU-2 strain, followed by treatment with ABX464. […] To highlight potential new splicing events induced by ABX464, we used a custom bioinformatics pipeline with the main step involving the assembly of putative transcripts from targeted RNA sequencing reads to construct contigs (Illumina paired-end 2×75 bp) (FIGS. 6 A and B). […] The HIV profiling datasets used in our analysis yielded high sequence coverage (2 to 30 million reads for the 9 kb genome), allowing deep quantification of HIV splice variants."}, "HIV RNA": {"system": "HIV RNA", "experiment": "RNA CaptureSeq of HIV RNA splicing in infected PBMCs", "assay_type": "cell-based, HIV-1", "experimental": "Total RNA was extracted from infected and uninfected PBMC samples using TRIzol reagent (Invitrogen) following the manufacturer's protocol. The RNA concentrations and purity were determined using the RNA 6000 Bioanalyzer kit (Agilent). For cDNA synthesis, 1 μg of total RNA was treated with DNase I (Invitrogen) and then utilized as a template for reverse transcription using the Verso cDNA kit with a blend of random hexamers and anchored oligo-dT (Thermo Scientific), according to the manufacturer's instructions. After KAPA Hyper Prep (ROCHE) library preparation from 1 μg total RNA, we proceeded with SeqCap EZ capture (ROCHE) following the manufacturer's recommendations. Hybrid selection was performed with a custom SeqCap EZ Choice Library (Roche NimbleGen) containing the following regions; chromosome 8 (9,760,617 to 9,761,780 and 65,285,285 to 65,296,944). chromosome 20 (61,797,549 to 61,812,855), chromosome 1 (1,102,000 to 1,106,000), chromosome 13 (92,000,074 to 92,006,833), chromosome 15 (22,512,831 to […]) and the genome of the HIV Ada8 strain. This library was designed through the NimbleDesign portal (v1.2.R1) using genome build hg19 NCBI Build 37.1/GRCh37. Sequencing was performed on a NextSeq 500 (Illumina) with 18 samples on a HighOutput Cartridge (2×400 million reads of 75 bases each).\nTo profile viral transcriptional events modulated by ABX464 and thereby assess the full depth of the HIV transcriptome, we employed a recently described targeted RNA capture and sequencing strategy (RNA CaptureSeq). This strategy involves the construction of tiling arrays across the HIV genome, against which cDNAs are hybridized, eluted and sequenced. RNA CaptureSeq is similar to previous in-solution capture methods and exome sequencing approaches, but when combined with deep-sequencing technology, provides saturating coverage and permits the robust assembly of rare and unannotated HIV transcripts.\nPBMCs from 6 HIV-negative donors were infected with the YU-2 strain, followed by treatment with ABX464. […] After cDNA capture from infected cells that were untreated or treated with ABX464, libraries were prepared and sequenced using an Illumina sequencing facility. To highlight potential new splicing events induced by ABX464, we used a custom bioinformatics pipeline with the main step involving the assembly of putative transcripts from targeted RNA sequencing reads to construct contigs (Illumina paired-end 2×75 bp) (FIGS. 6 A and B). The putative transcripts (contigs) were then mapped to the HIV genome. The HIV profiling datasets used in our analysis yielded high sequence coverage (2 to 30 million reads for the 9 kb genome), allowing deep quantification of HIV splice variants.\nTo test whether enhanced splicing by ABX464 generates new viral RNA variants, the splicing events were filtered and analyzed. After mapping the contigs to the genome of the YU-2 strain, the latter was used as an anchor for additional clustering and assembly of new HIV transcripts. The partial gene structures generated by the spliced alignment were merged whenever they shared consecutive splicing sites spanning an intronic viral sequence. The superstructures so formed correspond to all possible HIV gene structures for which each complete exon is supported by at least one of the alignments. At the HIV transcript level, this led to the formation of superassemblies, where each superassembly is a merge of initial contigs matching a predicted superstructure. […] FIG. 1C and Table III present the distribution of the number of contigs that were merged to form one superassembly for each donor. […]"}, "miR-429": {"system": "miR-429", "experiment": "RNA CaptureSeq read counts at the control locus miR-429", "assay_type": "cell-based, human", "conditions": "PBMCs; control locus outside the miR-124 region", "experimental": "Total RNA was extracted from infected and uninfected PBMC samples using TRIzol reagent (Invitrogen) following the manufacturer's protocol. The RNA concentrations and purity were determined using the RNA 6000 Bioanalyzer kit (Agilent). For cDNA synthesis, 1 μg of total RNA was treated with DNase I (Invitrogen) and then utilized as a template for reverse transcription using the Verso cDNA kit with a blend of random hexamers and anchored oligo-dT (Thermo Scientific), according to the manufacturer's instructions. After KAPA Hyper Prep (ROCHE) library preparation from 1 μg total RNA, we proceeded with SeqCap EZ capture (ROCHE) following the manufacturer's recommendations. […] Sequencing was performed on a NextSeq 500 (Illumina) with 18 samples on a HighOutput Cartridge (2×400 million reads of 75 bases each).\nmiR-124 is encoded from three independent genes, miR-124-1, miR-124-2, and miR-124-3, located on human chromosomes 8 and 20 (FIG. 4A). […] The total number of reads for untreated as well as ABX464 treated samples varied between 2 and 30 million in infected and uninfected PBMCs (Table V). The number of reads from the three loci encoding miR-124 in the treated samples were 4- to 12-fold higher than in the untreated samples (FIG. 4B, Table V), confirming that ABX464 led to a large increase in miR-124. […]"}, "[1]": {"conditions": "PBMCs infected with YU2, treated with ABX464, one value per donor library"}},
  "note": "“And” between values parts separate entries of the source, which are not always exact repeats. Identical values can stand only once.",
  "data": [
    {"compound": "FC(F)(F)Oc1ccc(Nc2ccc3cccc(Cl)c3n2)cc1", "note": "[ABX464, 8-chloro-N-(4-(trifluoromethoxy)phenyl)quinolin-2-amine]", "values": [
      {"measurement": "inhibition at 5 µM", "setting": "HIV-1 YU-2 strain", "result": "> 70", "unit": "%"},
      {"measurement": "assembled contigs corresponding to spliced RNAs", "setting": "HIV RNA; ABX464-treated PBMC samples infected with YU-2", "result": 90, "unit": "%"},
      {"measurement": "contig counts spliced RNA transcripts Gag", "setting": "HIV RNA; [1]", "result": "18 and 42 and 25 and 13 and 19 and 26"},
      {"measurement": "contig counts spliced RNA transcripts Pol", "setting": "HIV RNA; [1]", "result": "67 and 61 and 17 and 14 and 12 and 35"},
      {"measurement": "contig counts spliced RNA transcripts Vif", "setting": "HIV RNA; [1]", "result": "32 and 34 and 15 and 16 and 12 and 25"},
      {"measurement": "contig counts spliced RNA transcripts env", "setting": "HIV RNA; [1]", "result": "59 and 42 (2×) and 37 and 13 and 35"},
      {"measurement": "contig counts spliced RNA transcripts rev", "setting": "HIV RNA; [1]", "result": "23 and 21 and 17 and 9 and 12 and 29"},
      {"measurement": "contig counts spliced RNA transcripts tat", "setting": "HIV RNA; [1]", "result": "16 and 18 (2×) and 19 and 15 and 24"},
      {"measurement": "contig counts spliced RNA transcripts vpr", "setting": "HIV RNA; [1]", "result": "14 (2×) and 9 and 12 (2×) and 11"},
      {"measurement": "contig counts spliced RNA transcripts vpu", "setting": "HIV RNA; [1]", "result": "7 and 5 and 13 and 11 (2×) and 17"},
      {"measurement": "contig counts Complete_mRNA", "setting": "HIV RNA; PBMCs infected with YU2, treated with ABX464, one value per donor library (D1, D4-D8)", "result": "11 and 13 and 6 (2×) and 32 and 15"},
      {"measurement": "expression of miR-429", "setting": "miR-429", "result": "no effect"}
    ]}
  ]
}
